Like-named read-outs stand apart in the source and are kept apart here.
Test system: HIV-1 (IIIB) in MT-4 cells
Experiment: MT-4 HIV assay
Type: cell-based
Details: Human immunodeficiency virus 1, MT4, 120 h
Description: Compounds were tested in a high-throughput 384-well assay format for their ability to inhibit the replication of HIV-1 (IIIB) in MT-4 cells. Compounds were serially diluted (1:3) in DMSO on 384-well polypropylene plates and further diluted 200-fold into complete RPMI media (10% FBS, 1% P/S) using the Biotek Micro Flow and Agilent ECHO acoustic dispenser. Each plate contained up to 8 test compounds, with negative (No Drug Control) and 5 uM AZT positive controls. MT-4 cells were pre-infected with 10 uL of either RPMI (mock-infected) or a fresh 1:250 dilution of an HIV-1 (IIIB) concentrated virus stock. Infected and uninfected MT-4 cells were further diluted in complete RPMI media and added to each plate using a Micro Flow dispenser. After 5 days incubation in a humidified and temperature controlled incubator (37° C.), Cell Titer Glo (Promega) was added to the assay plates to quantify the amount of luciferase.

[1] = HIV-1 (IIIB), MT-4 cells, 5 days, Cell Titer Glo, read-out: EC50

| Structure (SMILES) | EC50 [1] [nM] | EC50 [nM] |
| --- | --- | --- |
| COC(=O)N[C@H](C(=O)NN(Cc1c(F)cc(-c2cn(C(F)F)cn2)cc1F)C[C@H](O)[C@H](Cc1ccc(C#Cc2cnc(N3CC4CCC(C3)N4C3COC3)nc2)cc1)NC(=O)[C@@H](NC(=O)OC)C(C)(C)C(F)(F)F)C(C)(C)C [Example 2, Methyl ((5S,8S,9S,14S)-11-(4-(1-(difluoromethyl)-1H-imidazol-4-yl)-2,6-difluorobenzyl)-9-hydroxy-15,15-dimethyl-8-(4-((2-(8-(oxetan-3-yl)-3,8-diazabicyclo[3.2.1]octan-3-yl)pyrimidin-5-yl)ethynyl)benzyl)-3,6,13-trioxo-5-(1,1,1-trifluoro-2-methylpropan-2-yl)-2-oxa-4,7,11,12-tetraazahexadecan-14-yl)carbamate] | 2.64 |  |
| COC(=O)N[C@H](C(=O)N[C@@H](Cc1ccc(C#Cc2ccc(N3CC4CCC(C3)N4C3COC3)nc2)cc1)[C@@H](O)CN(Cc1c(F)cc(-c2ccccn2)cc1Cl)NC(=O)[C@@H](NC(=O)OC)C(C)(C)CF)C(C)(C)CF [Example 234, methyl ((5S,8S,9S,14S)-11-(2-chloro-6-fluoro-4-(pyridin-2-yl)benzyl)-16-fluoro-5-(1-fluoro-2-methylpropan-2-yl)-9-hydroxy-15,15-dimethyl-8-(4-((6-(8-(oxetan-3-yl)-3,8-diazabicyclo[3.2.1]octan-3-yl)pyridin-3-yl)ethynyl)benzyl)-3,6,13-trioxo-2-oxa-4,7,11,12-tetraazahexadecan-14-yl)carbamate] | 2.54 |  |
| COC(=O)N[C@H](C(=O)N[C@@H](Cc1ccc(C#Cc2ccc(N3CC4CCC(C3)N4C3COC3)nc2)cc1)[C@@H](O)CN(Cc1c(Cl)cc(-c2ccccn2)cc1Cl)NC(=O)[C@@H](NC(=O)OC)C(C)(C)C(F)(F)F)C(C)(C)C(F)(F)F [Example 149, Methyl ((5S,8S,9S,14S)-11-(2,6-dichloro-4-(pyridin-2-yl)benzyl)-16,16,16-trifluoro-9-hydroxy-15,15-dimethyl-8-(4-((6-(8-(oxetan-3-yl)-3,8-diazabicyclo[3.2.1]octan-3-yl)pyridin-3-yl)ethynyl)benzyl)-3,6,13-trioxo-5-(1,1,1-trifluoro-2-methylpropan-2-yl)-2-oxa-4,7,11,12-tetraazahexadecan-14-yl)carbamate] | 8.3 |  |
| COC(=O)N[C@H](C(=O)N[C@@H](Cc1ccc(C#Cc2ccc(N3CC4CCC(C3)N4C3COC3)nc2)cc1)[C@@H](O)CN(Cc1c(F)cc(C2COC2)cc1F)NC(=O)[C@@H](NC(=O)OC)C(C)(C)C(F)(F)F)C(C)(C)C(F)(F)F [Example 83, Methyl ((5S,8S,9S,14S)-11-(2,6-difluoro-4-(oxetan-3-yl)benzyl)-16,16,16-trifluoro-9-hydroxy-15,15-dimethyl-8-(4-((6-(8-(oxetan-3-yl)-3,8-diazabicyclo[3.2.1]octan-3-yl)pyridin-3-yl)ethynyl)benzyl)-3,6,13-trioxo-5-(1,1,1-trifluoro-2-methylpropan-2-yl)-2-oxa-4,7,11,12-tetraazahexadecan-14-yl)carbamate] | 17.2 |  |
| COC(=O)N[C@H](C(=O)N[C@@H](Cc1ccc(-c2cnc(N3C[C@H]4C[C@@H]3CN4C3COC3)nc2)cc1)[C@@H](O)CN(Cc1c(F)cc(-c2ccn(CC(F)F)n2)cc1F)NC(=O)[C@@H](NC(=O)OC)C(C)(C)C(F)(F)F)C(C)(C)C(F)(F)F [Example 191, Methyl ((5S,8S,9S,14S)-11-(4-(1-(2,2-difluoroethyl)-1H-pyrazol-3-yl)-2,6-difluorobenzyl)-16,16,16-trifluoro-9-hydroxy-15,15-dimethyl-8-(4-(2-((1R,4R)-5-(oxetan-3-yl)-2,5-diazabicyclo[2.2.1]heptan-2-yl)pyrimidin-5-yl)benzyl)-3,6,13-trioxo-5-(1,1,1-trifluoro-2-methylpropan-2-yl)-2-oxa-4,7,11,12-tetraazahexadecan-14-yl)carbamate] |  | 17.4 |
| CC(=O)N[C@H](C(=O)N[C@@H](Cc1ccc(C#Cc2ccc(N3CC4CCC(C3)N4C3COC3)nc2)cc1)[C@@H](O)CN(Cc1c(F)cc(-c2ccn(C(F)F)n2)cc1F)NC(=O)[C@@H](NC(C)=O)C(C)(C)C(F)(F)F)C(C)(C)C(F)(F)F [Example 182, (2S)-2-acetamido-N-((2S,3S)-4-(2-((S)-2-acetamido-4,4,4-trifluoro-3,3-dimethylbutanoyl)-1-(4-(1-(difluoromethyl)-1H-pyrazol-3-yl)-2,6-difluorobenzyl)hydrazinyl)-3-hydroxy-1-(4-((6-(8-(oxetan-3-yl)-3,8-diazabicyclo[3.2.1]octan-3-yl)pyridin-3-yl)ethynyl)phenyl)butan-2-yl)-4,4,4-trifluoro-3,3-dimethylbutanamide] | 8.82 |  |
| COC(=O)N[C@H](C(=O)NN(Cc1c(F)cc(-c2ccn(C3CC3)n2)cc1F)C[C@H](O)[C@H](Cc1ccc(C#Cc2ccc(N3CCN(C4COC4)CC3)nc2)cc1)NC(=O)[C@@H](NC(=O)OC)C(C)(C)C(F)(F)F)C(C)(C)C [Example 91, Methyl ((5S,8S,9S,14S)-11-(4-(1-cyclopropyl-1H-pyrazol-3-yl)-2,6-difluorobenzyl)-9-hydroxy-15,15-dimethyl-8-(4-((6-(4-(oxetan-3-yl)piperazin-1-yl)pyridin-3-yl)ethynyl)benzyl)-3,6,13-trioxo-5-(1,1,1-trifluoro-2-methylpropan-2-yl)-2-oxa-4,7,11,12-tetraazahexadecan-14-yl)carbamate] | 3.69 |  |
| COC(=O)N[C@H](C(=O)N[C@@H](Cc1ccc(C#Cc2ccc(N3CC4CCC(C3)N4C(=O)C3(C)COC3)nc2)cc1)[C@@H](O)CN(Cc1c(F)cc(-c2ccn(C)n2)cc1F)NC(=O)[C@@H](NC(=O)OC)C(C)(C)C)C(C)(C)C [Example 4] | 2.82 |  |
| COC(=O)N[C@H](C(=O)N[C@@H](Cc1ccc(C#Cc2ccc(N3CC4CCC(C3)N4C(C)C)nc2)cc1)[C@@H](O)CN(Cc1c(F)cc(-c2ccccn2)cc1F)NC(=O)[C@@H](NC(=O)OC)C(C)(C)C(F)(F)F)C(C)(C)C(F)(F)F [Example 240, methyl ((5S,8S,9S,14S)-11-(2,6-difluoro-4-(pyridin-2-yl)benzyl)-16,16,16-trifluoro-9-hydroxy-8-(4-((6-(8-isopropyl-3,8-diazabicyclo[3.2.1]octan-3-yl)pyridin-3-yl)ethynyl)benzyl)-15,15-dimethyl-3,6,13-trioxo-5-(1,1,1-trifluoro-2-methylpropan-2-yl)-2-oxa-4,7,11,12-tetraazahexadecan-14-yl)carbamate] | 5.62 |  |
| COC(=O)N[C@H](C(=O)N[C@@H](Cc1ccc(C#Cc2ccc(N3CC4CC(C3)CN(C3COC3)C4)nc2)cc1)[C@@H](O)CN(Cc1c(F)cc(-c2cnn(C(F)F)c2)cc1F)NC(=O)[C@@H](NC(=O)OC)C(C)(C)C(F)(F)F)C(C)(C)C(F)(F)F [Example 65, Methyl ((5S,8S,9S,14S)-11-(4-(1-(difluoromethyl)-1H-pyrazol-4-yl)-2,6-difluorobenzyl)-16,16,16-trifluoro-9-hydroxy-15,15-dimethyl-8-(4-((6-(7-(oxetan-3-yl)-3,7-diazabicyclo[3.3.1]nonan-3-yl)pyridin-3-yl)ethynyl)benzyl)-3,6,13-trioxo-5-(1,1,1-trifluoro-2-methylpropan-2-yl)-2-oxa-4,7,11,12-tetraazahexadecan-14-yl)carbamate] |  | 7.7 |

From patent publication US10294234B2, “HIV inhibitor compounds” (priority 2017, dated 2019)
